# Laboratory results as given in patent US20130116302A1, “PHARMACEUTICAL COMPOSITION FOR THE TREATMENT OF CHLAMYDIAL INFECTION” (Max-Planck-Gesellschaft zur Foerderung der Wissenschaften …, priority 2010, published 2013).
# Where two headings read alike, the source gives them in different places.
# Legend:
# Chlamydia = experiment: effect of chemical inhibitors of GMPS on Chlamydia infection; assay type: cell-based; settings: for Chlamydia replication: chemical inhibitor of GMPS added to infected cells
# Method: The effect of chemical inhibitors of GMPS on Chlamydia infection was tested.
# Ctr = settings: Su et al., 2004; cited from earlier work
# cPLA2 [1] = settings: Su et al., 2004; cited from earlier work
# cPLA2 [2] = settings: 30 hours post-infection; FIG. 3A
# Method: (§1) Western blotting analysis (30 hours post-infection) of (A) uninfected and Ctr-infected cells with and without U0126, (B) uninfected and Ctr-infected cells transfected with siRNAs targeting luciferase or MEK1 and 2, and (C) uninfected and Ctr-infected cells transfected with siRNAs targeting luciferase, K-Ras, or Raf-1. β-actin was used as a loading control. (D) Uninfected and Ctr-infected cells treated with or without UO126 were lysed at 48 hours post-infection and these samples were used to infect freshly seeded cells. These cells were fixed 24 hours post-infection and the infectivity was quantified. Data shown are the mean±SD of three experiments normalized to mock-treated, infected cells. (E) Uninfected and Ctr-infected cells, untransfected of transfected with siRNAs specific for luciferase, K-Ras, or Raf-1 were lysed 48 hours post-infection and these samples were then used to infect freshly seeded cells. These cells were fixed 24 hours post-infection and the infectivity of the bacteria was quantified. […] Western blots depicted in (A) to (C) are representative of three experiments.
# ERK = settings: 30 hours post-infection; FIG. 3A
# Method: as §1
# [3] = tested on: Chlamydia trachomatis (Ctr); settings: 10 μM or 100 μM U0126 added 2 h after infection; lysed 48 h p.i.; FIG. 3D
# Method: as §1
# PPAT, GMPS, CAD, CTPS = settings: de novo pathway of purine and pyrimidine synthesis; cited from earlier work
# [4] = tested on: cellular UTP, CTP, GMP, ATP, ITP; settings: Neil et al., 1979; cited from earlier work
# bloodstream T. brucei [5] = settings: mouse model; cited from earlier work
# P. falciparum = settings: in vitro; cited from earlier work
# Leishmania donovani = settings: vector and host form; cited from earlier work
# bloodstream T. brucei [6] = settings: bloodstream T. brucei in culture; cited from earlier work
# GMPS = GMPS (Escherichia coli, UniProt P04079); settings: Chittur et al., 2001, cited from earlier work
# GMPS, sequence (P04079 whole entry): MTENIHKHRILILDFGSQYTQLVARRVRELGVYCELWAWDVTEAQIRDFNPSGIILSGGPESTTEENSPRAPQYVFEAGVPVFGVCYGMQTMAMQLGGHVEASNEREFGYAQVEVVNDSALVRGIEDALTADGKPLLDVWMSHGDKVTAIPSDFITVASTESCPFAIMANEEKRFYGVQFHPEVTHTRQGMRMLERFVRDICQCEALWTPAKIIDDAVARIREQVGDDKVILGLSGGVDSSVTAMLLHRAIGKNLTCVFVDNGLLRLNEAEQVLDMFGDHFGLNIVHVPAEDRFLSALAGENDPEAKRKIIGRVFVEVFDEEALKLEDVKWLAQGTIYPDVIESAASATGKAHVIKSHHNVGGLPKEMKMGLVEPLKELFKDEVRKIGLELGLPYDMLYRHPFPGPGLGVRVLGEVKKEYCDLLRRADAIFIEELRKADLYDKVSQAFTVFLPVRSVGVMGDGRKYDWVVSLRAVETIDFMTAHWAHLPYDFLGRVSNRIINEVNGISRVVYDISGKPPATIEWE
# C. trachomatis L2 = experiment: genome-wide siRNA-based screen in human epithelial cells, formation of Chlamydia infectious progeny; assay type: cell-based; settings: Table 1b, primary screen, genes of nucleotide metabolism
# Description: We performed a genome-wide siRNA-based screen in human epithelial cells to identify host cell factors that are essential for Chlamydia infection using the Qiagen Hu_Genome Set V1.0 and the Human Druggable Genome siRNA Set V2.0. C. trachomatis L2 was used.
compound,measurement,setting,value
C=C1O[C@@](CO)(n2cnc3c(N)ncnc32)[C@H](O)[C@@H]1O [Decoyinine],Chlamydia replication,Chlamydia,no inhibitory effect
N#CC(=C(/N)Sc1ccccc1N)/C(C#N)=C(\N)Sc1ccccc1N [U0126],infectivity of Ctr,Ctr,decreases
same,extent of phosphorylation of cPLA2,cPLA2 [1],reduces
same,phosphorylation of cPLA2 in response to infection,cPLA2 [2],repressed
same,phosphorylation of ERK in response to infection,ERK,repressed
same,infectivity of Ctr,[3],decreased
"N[C@H](C(=O)O)[C@@H]1CC(Cl)=NO1 [acivicin, L-[αS,5S]-α-amino-3-chloro-4,5-dihydro-5-isoxazoleacetic acid]","inhibition of PPAT, GMPS, CAD and CTPS","PPAT, GMPS, CAD, CTPS",inhibits
same,cellular nucleotide concentrations,[4],"decrease of cellular UTP, CTP, and GMP concentrations, with no alteration in ATP or ITP pools"
same,antitrypanosomal activity,bloodstream T. brucei [5],antitrypanosomal activity
same,growth of P. falciparum,P. falciparum,inhibit the growth
same,Chlamydia replication after addition of the nucleotides GTP and GMP,Chlamydia; cells to which acivicin was added,recover Chlamydia replication
same,Chlamydia replication,Chlamydia,complete block
same,killing of Leishmania donovani,Leishmania donovani,kills both the vector and the host form
same,antitrypanosomal activity,bloodstream T. brucei [6],antitrypanosomal activity
same,inhibition of GMPS (γ-glutamine amidotransferase activity),GMPS,inhibit
same,inhibition of GMPS (γ-glutamine amidotransferase activity),GMPS; listed as Acivicin,irreversibly inhibits
"Hs_NPR2_2: siRNA, target gene NPR2 (sense ACCCAACTGAATGAAGAGCTA; chemistry not given here; the letters are possibly those of the target site)",Infectivity phenotype upon Knockdown,C. trachomatis L2,down
"Hs_NPR2_8: siRNA, target gene NPR2 (sense CAGCTCAGCCCTGTACATATA; chemistry not given here; the letters are possibly those of the target site)",Infectivity phenotype upon Knockdown,C. trachomatis L2,down
"Hs_PAPSS2_1: siRNA, target gene PAPSS2 (sense ATGGAAGGTCCTGACAGATTA; chemistry not given here; the letters are possibly those of the target site)",Infectivity phenotype upon Knockdown,C. trachomatis L2,down
"Hs_PDE1A_2: siRNA, target gene PDE1A (sense ACAGAGTGCTATAACTATAAA; chemistry not given here; the letters are possibly those of the target site)",Infectivity phenotype upon Knockdown,C. trachomatis L2,down
"Hs_PDE1A_4: siRNA, target gene PDE1A (sense ACACAGAGTGCTATAACTATA; chemistry not given here; the letters are possibly those of the target site)",Infectivity phenotype upon Knockdown,C. trachomatis L2,down
"Hs_PDE2A_3: siRNA, target gene PDE2A (sense ACCGCTTTGTACATGAGAATA; chemistry not given here; the letters are possibly those of the target site)",Infectivity phenotype upon Knockdown,C. trachomatis L2,down
"Hs_PDE2A_4: siRNA, target gene PDE2A (sense ATCGCGGAGCTGATCTACAAA; chemistry not given here; the letters are possibly those of the target site)",Infectivity phenotype upon Knockdown,C. trachomatis L2,down
"Hs_PDE4A_2: siRNA, target gene PDE4A (sense TTCGATCTTGTCTCCAATTAA; chemistry not given here; the letters are possibly those of the target site)",Infectivity phenotype upon Knockdown,C. trachomatis L2,down
"Hs_PDE4A_4: siRNA, target gene PDE4A (sense ATGGGAAGTCGTGTCATCCTA; chemistry not given here; the letters are possibly those of the target site)",Infectivity phenotype upon Knockdown,C. trachomatis L2,down
"Hs_PDE4D 3: siRNA, target gene PDE4D (sense TACCCACTAATGGACAATCAA; chemistry not given here)",Infectivity phenotype upon Knockdown,C. trachomatis L2,down
"Hs_PDE4D_4: siRNA, target gene PDE4D (sense CAGGTAGTTAAGTTAGGGTTA; chemistry not given here; the letters are possibly those of the target site)",Infectivity phenotype upon Knockdown,C. trachomatis L2,down
"Hs_PDE6B_2: siRNA, target gene PDE6B (sense CACGCTGCTCATGACCGGCAA; chemistry not given here; the letters are possibly those of the target site)",Infectivity phenotype upon Knockdown,C. trachomatis L2,down
"Hs_PDE6B_4: siRNA, target gene PDE6B (sense GCCCACCACATTTGACATCTA; chemistry not given here; the letters are possibly those of the target site)",Infectivity phenotype upon Knockdown,C. trachomatis L2,down
